Test results: ChEMBL document CHEMBL3797166, “Identification of N-phenyl-2-(N-phenylphenylsulfonamido)acetamides as new RORγ inverse agonists: Virtual screening, structure-based optimization, and biological evaluation” (Eur J Med Chem, 2016)
Activity calls are given as the source filed them. The rule behind the calls is not given here.

Experiments:
[1] = biological target: T1, Nuclear receptor ROR-gamma (Homo sapiens, UniProt P51449); experiment: Inhibition of Gal4-RORgamma-LBD (180 to 507 residues) (unknown origin) expressed in HEK293T cells after 24 hrs by dual-luciferase reporter assay; format: cell-based, HEK-293T
T1 sequence (P51449 whole entry): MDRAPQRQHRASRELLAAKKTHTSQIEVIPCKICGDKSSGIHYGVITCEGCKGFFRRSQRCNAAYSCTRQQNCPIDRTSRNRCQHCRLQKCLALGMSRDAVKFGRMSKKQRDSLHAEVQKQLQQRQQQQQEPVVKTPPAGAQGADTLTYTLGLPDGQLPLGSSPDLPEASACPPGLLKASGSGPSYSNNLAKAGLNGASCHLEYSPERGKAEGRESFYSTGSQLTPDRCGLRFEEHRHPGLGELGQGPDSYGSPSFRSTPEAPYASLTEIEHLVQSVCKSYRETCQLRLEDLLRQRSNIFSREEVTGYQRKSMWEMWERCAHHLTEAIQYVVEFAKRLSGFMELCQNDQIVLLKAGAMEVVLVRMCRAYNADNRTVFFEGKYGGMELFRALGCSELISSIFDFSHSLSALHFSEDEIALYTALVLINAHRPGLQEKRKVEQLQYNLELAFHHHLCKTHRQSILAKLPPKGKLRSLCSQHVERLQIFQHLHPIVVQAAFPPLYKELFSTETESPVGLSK

[2] = biological target: T1, Nuclear receptor ROR-gamma; experiment: Displacement of N-terminal biotinylated SRC1-4 coactivator peptide from N-terminal His6-fused human RORgamma-LBD (262 to 507 residues) expressed in Escherichia coli BL21 (DE3) by luminescence-based Alphascreen assay
[3] = biological target: T2, Nuclear receptor ROR-gamma (Homo sapiens) (UniProt P51449)
T2 sequence (whole entry): T1 sequence (P51449 whole entry)
Description: Binding affinity to N-terminal His6-fused human RORgamma-LBD (262 to 507 residues) expressed in Escherichia coli BL21 (DE3) assessed as inhibition of thermal stability activity at 200 uM incubated for 30 mins by RT-PCR analysis

| SMILES | IC50 ([1]; hek-293t) | IC50 [2] | ΔTm [3] [°C] | IC50 ([1]; read-out: IC50) [µM] | IC50 ([2]; read-out: IC50) [µM] | deltaTm [3] |
| --- | --- | --- | --- | --- | --- | --- |
| CCCCCCNC(=O)CN(c1cccc(C(F)(F)F)c1)S(=O)(=O)c1ccc(C)cc1 | Not Active | Not Active | – | – | – | – |
| Cc1ccc(S(=O)(=O)N(CC(=O)Nc2ccc(F)cc2F)c2cccc(C(F)(F)F)c2)cc1 | – | – | 1.8 | 4.54 | 62.6 | – |
| Cc1ccc(S(=O)(=O)N(CC(=O)Nc2ccc(O)cc2)c2cccc(C(F)(F)F)c2)cc1 | – | – | 1.6 | 8.34 | 13.6 | – |
| Cc1ccc(S(=O)(=O)N(CC(=O)Nc2ccc(C#N)cc2)c2ccc(Cl)c(Cl)c2)cc1 | – | – | 3.5 | 0.63 | 0.22 | – |
| COC(=O)c1cccc(NC(=O)CN(c2cccc(C(F)(F)F)c2)S(=O)(=O)c2ccc(C)cc2)c1 | – | Not Active | – | 6.06 | – | – |
| Cc1ccc(S(=O)(=O)N(CC(=O)Nc2ccc(C#N)cc2)c2cccc(C(F)(F)F)c2)cc1 | – | – | 3.5 | 0.9 | 0.77 | – |
| Cc1ccc(S(=O)(=O)N(CC(=O)Nc2ccc(C#N)cc2)c2ccc(C#N)cc2)cc1 | – | – | 1.71 | 1.31 | 65.3 | – |
| Cc1ccc(S(=O)(=O)N(CC(=O)Nc2ccc(C#N)cc2)c2ccc(C(F)(F)F)cc2)cc1 | – | – | 3.05 | 0.62 | 1.07 | – |
| COC(=O)c1ccc(NC(=O)CN(c2cccc(C(F)(F)F)c2)S(=O)(=O)c2ccc(C)cc2)cc1 | – | – | 1.15 | 3.98 | 11.8 | – |
| Cc1ccc(N(CC(=O)Nc2ccc(C#N)cc2)S(=O)(=O)Cc2ccccc2)cc1 | – | – | 1.71 | 0.63 | 36.8 | – |
| Cc1ccc(S(=O)(=O)N(CC(=O)NCc2ccc(O)cc2)c2cccc(C(F)(F)F)c2)cc1 | – | – | 1 | 22.1 | 14.7 | – |
| Cc1ccc(S(=O)(=O)N(CC(=O)Nc2ccc(C(O)(C(F)(F)F)C(F)(F)F)cc2)c2cccc(C(F)(F)F)c2)cc1 | – | – | 0.5 | – | 112 | – |
| COC(=O)c1ccc(CNC(=O)CN(c2cccc(C(F)(F)F)c2)S(=O)(=O)c2ccc(C)cc2)cc1 | Not Active | – | – | – | 67.1 | – |
| Cc1ccc(S(=O)(=O)N(CC(=O)Nc2ccc(OCc3ccccc3)cc2)c2cccc(C(F)(F)F)c2)cc1 | Not Active | – | – | – | 93.9 | – |
| Cc1ccc(N(CC(=O)Nc2ccc(C#N)cc2)S(=O)(=O)Cc2ccc(F)cc2)cc1 | – | – | 2.5 | 1.78 | 25.8 | – |
| Cc1ccc(N(CC(=O)Nc2ccc(C#N)cc2)S(=O)(=O)c2ccc(F)cc2)cc1 | – | – | 2.8 | 1.45 | 10.3 | – |

| SMILES | IC50 ([1]; hek-293t) | IC50 [2] | ΔTm [3] [°C] | IC50 ([1]; read-out: IC50) [µM] | IC50 ([2]; read-out: IC50) [µM] | deltaTm [3] |
| --- | --- | --- | --- | --- | --- | --- |
| Cc1ccc(S(=O)(=O)N(CC(=O)O)c2cccc(C(F)(F)F)c2)cc1 | – | – | – | 152 | 93.3 | inactive |
| Cc1ccc(S(=O)(=O)N(CC(=O)Nc2ccc(C(N)=O)cc2)c2cccc(C(F)(F)F)c2)cc1 | – | – | 1.9 | 0.42 | 35.1 | – |
| Cc1ccc(S(=O)(=O)N(CC(=O)NC2CCCCC2)c2cccc(C(F)(F)F)c2)cc1 | – | Not Active | 0.1 | 1.03 | – | – |
| Cc1ccc(S(=O)(=O)N(CC(=O)Nc2ccc(OC(F)(F)F)cc2)c2cccc(C(F)(F)F)c2)cc1 | Not Active | Not Active | – | – | – | – |
| Cc1ccc(S(=O)(=O)N(CC(=O)NCc2ccncc2)c2cccc(C(F)(F)F)c2)cc1 | – | – | 2.2 | 8.28 | 15.2 | – |
| COC(=O)c1ccccc1NC(=O)CN(c1cccc(C(F)(F)F)c1)S(=O)(=O)c1ccc(C)cc1 | – | – | 2.1 | 1.39 | – | – |
| CC(=O)N1CCN(C(=O)CN(c2cccc(C(F)(F)F)c2)S(=O)(=O)c2ccc(C)cc2)CC1 | – | – | – | 10.4 | 175 | inactive |
| Cc1ccc(S(=O)(=O)N(CC(=O)Nc2ccc(F)cc2)c2cccc(C(F)(F)F)c2)cc1 | – | – | 2.1 | 3.37 | 3.99 | – |
| COc1ccc(NC(=O)CN(c2cccc(C(F)(F)F)c2)S(=O)(=O)c2ccc(C)cc2)cc1OC | – | – | 1.3 | 2.44 | 12.8 | – |
| Cc1ccc(S(=O)(=O)N(CC(=O)Nc2nc(C)cs2)c2cccc(C(F)(F)F)c2)cc1 | – | – | 0.8 | 3.65 | 15.8 | – |
| CC(=O)c1ccc(NC(=O)CN(c2cccc(C(F)(F)F)c2)S(=O)(=O)c2ccc(C)cc2)cc1 | – | – | 1.25 | 0.59 | 11.3 | – |
| Cc1ccc(S(=O)(=O)N(CC(=O)NCc2ccc(F)cc2)c2cccc(C(F)(F)F)c2)cc1 | – | – | 1.07 | 7.51 | 13.1 | – |
| Cc1ccc(S(=O)(=O)N(CC(=O)Nc2ccc(C#N)cc2)c2ccc(F)cc2)cc1 | – | – | 2.15 | 0.91 | 36.1 | – |
| Cc1ccc(S(=O)(=O)N(CC(=O)Nc2cccc(C(=O)O)c2)c2cccc(C(F)(F)F)c2)cc1 | Not Active | – | – | – | – | – |
| Cc1ccc(CNC(=O)CN(c2cccc(C(F)(F)F)c2)S(=O)(=O)c2ccc(C)cc2)cc1 | – | Not Active | 1 | 27.2 | – | – |
